Assay results as given in patent US20100256357A1, “HETEROCYCLES USEFUL AS INHIBITORS OF CARBONIC ANHYDRASE” (Agouron Pharmaceuticals, Inc., priority 2006, published 2010).

How the values were obtained:
human CA-II [1] = target: T1, human CA-II (Homo sapiens, UniProt P00918); assay: Carbonic Anhydrase-II (CA-II) Fluorimetric Assay-IC50 Determination; format: biochemical; conditions: read-out: CAII % Inh @ Min dose; for inhibition at 0.1 µM: CA II Min dose 100 nM; for inhibition at 0.01 µM: CA II Min dose 10 nM
T1 construct: purchased Sigma-Aldrich C6165
How it was run: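 Enzyme activity is read fluorimetrically at 25° C (ex 488 nm / em 538 nm) as the rate at which human CA-II hydrolyses fluorescein diacetate. The buffer is Tris/HCl (50 mM, pH 7.6) with 100 mM Na2SO4 and 0.005% Tween-20. Inhibitors run in duplicate over 11 threefold dilutions, […]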

human CA-II [2] = target: T1, human CA-II; assay: Carbonic Anhydrase-II (CA-II) Fluorescence Polarization Tight Binding Assay-Kd Determination; conditions: for Kd: read-out: CA-II Kd; for inhibition at 0.0025 µM: inhibitor concentration 2.5 nM
Experimental: Assays were conducted in a final volume of 100 μL in 50 mM Tris/HCl (pH 7.6), 100 mM Na2SO4 and 0.005% Tween-20 in a 96-well black assay plate. […] The assay plate was
The Kd binding was calculated using GraphPad Prism and Morrison tight binding ligand equation.

human CA-IV = target: T2, human CA-IV (Homo sapiens, UniProt P22748); assay: Carbonic Anhydrase-IV (CA-IV) Fluorescence Polarization Assay-IC50 Determination; format: binding; conditions: for inhibition at 0.2 µM: CA-IV Min dose 200 nM, read-out: CA-IV: % Inh @ Min dose; for IC50: read-out: CA-IV IC50
T2 construct: made in house; host or cells: Escherichia coli BL21(DE3)
T2 sequence (P22748 19-284 limits assumed): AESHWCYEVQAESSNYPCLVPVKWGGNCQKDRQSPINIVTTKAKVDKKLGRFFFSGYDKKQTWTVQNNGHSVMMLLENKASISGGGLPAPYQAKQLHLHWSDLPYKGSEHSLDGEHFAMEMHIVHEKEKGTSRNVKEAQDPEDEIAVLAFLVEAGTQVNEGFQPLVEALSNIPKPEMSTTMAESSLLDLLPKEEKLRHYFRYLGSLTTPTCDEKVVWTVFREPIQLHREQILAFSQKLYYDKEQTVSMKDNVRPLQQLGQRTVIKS
Experimental: Carbonic Anhydrase-IV (CA-IV) Fluorescence Polarization Assay-IC50 Determination
These cells were grown in Luria broth (LB) media (Biomyx) supplemented with 800 uM ZnCl2 at 37° C. until an O.D.600 of 0.7, at which point the cells were induced with 100 uM isopropyl-beta-D-thiogalactopyranoside (IPTG) for 20 hours at 20° C. The frozen pellet was resuspended in 50mM 2-morpholinoethanesulfonic acid (MES) at pH 6.0, 100 mM NaCl, 800 uM ZnCl2 and EDTA-Free protease inhibitors (Roche). The cells were lysed with a microfluidizer, the lysate was spun at 40,000 rpm for 45 minutes at 4° C., and the soluble fraction was dialyzed overnight at 4° C. in 50 mM MES pH 6.0, and 100 mM NaCl. The soluble fraction was then put over a 100 ml SP-Sepharose High Performance (GE Healthcare) column and eluted with a 50 mM MES pH 6.0, 750 mM NaCl gradient. The peak fractions were then concentrated, via an Amicon Ultra-4 10,000 MWCO (Millipore) spin column to 2.0 mL and loaded onto a Sephacryl S-100 High Resolution (GE Healthcare) column in 25 mM tris(hydroxymethyl)aminomethane hydrochloride (Tris-HCl) pH 7.0, and 100 mM NaCl. The peak fractions were then concentrated, via an Amicon Ultra-4 10,000 MWCO (Millipore) spin column, to 7.0 mg/mL and left exposed at room temperature overnight. […] T.; et al. Carbonic Anhydrase Inhibitors. Med. Res. Rev. […]
Assays were conducted in a final volume of 100 μL in 50 mM Tris/HCl (pH 7.6), 100 mM Na2SO4 and 0.005% Tween-20 in a 96-well black assay plate.

Row | inhibition at 0.1 µM (human CA-II [1]) | Kd (human CA-II [2]) | inhibition at 0.2 µM (human CA-IV) | IC50 (human CA-IV) | inhibition at 0.01 µM (human CA-II [1]) | inhibition at 0.0025 µM (human CA-II [2]) | SMILES
1 | 100% | 0.56 nM | 68.6% | 86 nM | – | – | CCCCCN(C)C(=O)c1nc(Cc2ccccc2)n(-c2ccc(S(N)(=O)=O)cc2)n1 [Example R-1, 1-[4-(aminosulfonyl)phenyl]-5-benzyl-N-methyl-N-pentyl-1H-124-triazole-3-carboxamide]
2 | – | 0.621 nM | 57.7% | 87 nM | 87% | – | NS(=O)(=O)c1ccc(-n2nc(C(=O)N(CCO)Cc3ccccc3)nc2Cc2ccccc2)cc1 [Example R-2, 1-[4-(aminosulfonyl)phenyl]-N5-dibenzyl-N-(2-hydroxyethyl)-1H-124-triazole-3-carboxamide]
3 | 101% | 0.451 nM | 66.4% | 88 nM | – | – | CCCCN(C)C(=O)c1nc(Cc2ccccc2)n(-c2ccc(S(N)(=O)=O)cc2)n1 [Example R-3, 1-[4-(aminosulfonyl)phenyl]-5-benzyl-N-butyl-N-methyl-1H-124-triazole-3-carboxamide]
4 | – | 0.325 nM | 58.2% | 180 nM | 97% | – | CC1(C)COCN1C(=O)c1nc(Cc2ccccc2)n(-c2ccc(S(N)(=O)=O)cc2)n1 [Example R-6, 4-(5-benzyl-3-[(44-dimethyl-13-oxazolidin-3-yl)carbonyl]-1H-124-triazol-1-yl)benzenesulfonamide]
5 | 99% | 0.091 nM | 64.7% | 202 nM | – | – | NS(=O)(=O)c1ccc(-n2nc(C(=O)NCc3n[nH]c4c3CCC4)nc2Cc2ccccc2)cc1 [Example R-11, 1-[4-(aminosulfonyl)phenyl]-5-benzyl-N-(1456-tetrahydrocyclopenta[c]pyrazol-3-ylmethyl)-1H-124-triazole-3-carboxamide]
6 | 100% | 0.644 nM | 63.6% | 208 nM | – | – | N#CCCN(C(=O)c1nc(Cc2ccccc2)n(-c2ccc(S(N)(=O)=O)cc2)n1)C1CC1 [Example R-13, 1-[4-(aminosulfonyl)phenyl]-5-benzyl-N-(2-cyanoethyl)-N-cyclopropyl-1H-124-triazole-3-carboxamide]
7 | 101% | 0.067 nM | 56.9% | 242 nM | – | – | NS(=O)(=O)c1ccc(-n2nc(C(=O)NCC3CCCCC3)nc2Cc2ccccc2)cc1 [Example R-17, 1-[4-(aminosulfonyl)phenyl]-5-benzyl-N-(cyclohexylmethyl)-1H-124-triazole-3-carboxamide]
8 | – | – | – | – | – | 50% | NS(=O)(=O)c1ccc(-n2nc(CN[C@@H]3COC[C@@H]3C3CC3)nc2Cc2ccccc2)c(F)c1 [Example T-77, 4-[5-benzyl-3-({[(3S4R)-4-cyclopropyltetrahydrofuran-3-yl]amino}methyl)-1H-124-triazol-1-yl]-3-fluorobenzenesulfonamide]
9 | – | – | – | – | – | 71% | Cc1cccc(CC(C)NCc2nc(Cc3ccccc3)n(-c3ccc(S(N)(=O)=O)cc3F)n2)n1 (centres unmarked) [Example T-78, 4-[5-benzyl-3-({[1-methyl-2-(6-methylpyridin-2-yl)ethyl]amino}methyl)-1H-124-triazol-1-yl]-3-fluorobenzenesulfonamide]
10 | – | – | – | – | – | 44% | CC(C)OCCNCc1nc(Cc2ccccc2)n(-c2ccc(S(N)(=O)=O)cc2F)n1 [Example T-79, 4-(5-benzyl-3-{[(2-isopropoxyethyl)amino]methyl}-1H-124-triazol-1-yl)-3-fluorobenzenesulfonamide]
11 | – | – | – | – | – | 73% | COC[C@H](C)NCc1nc(Cc2ccccc2)n(-c2ccc(S(N)(=O)=O)cc2F)n1 [Example T-80, 4-[5-benzyl-3-({[(1S)-2-methoxy-1-methylethyl]amino}methyl)-1H-124-triazol-1-yl]-3-fluorobenzenesulfonamide]
